# According to patent US7582655B2, “Antineoplastic compounds” (University of Saskatchewan, priority 2005, dated 2009):
# Where two headings read alike, the source gives them in different places.
# What was measured:
# human pulp cells (HPC) = test: in vitro
# Description: (§1) In addition, the compounds were evaluated against human squamous cell carcinomas (HSC-2 and HSC-4) and human promyelocytic leukemia neoplasms (HL-60) and compared with normal cells, i.e. human gingival fibroblasts (HGF), human pulp cells (HPC) and human periodontal ligament fibroblasts (HPLF).
# (§2) MTT stands for 3-(4,5-dimethylthiazol-2-yl)-2,5-diphenyltetrazolium bromide). The cells were incubated with varying concentrations of the compounds along with untreated cells for 24 h and the absorbance at 540 nm measured. In the case of the HL-60 assay, the trypan blue exclusion method was followed and cell viability was determined using a haemocytometer. The CC50 values were obtained from dose-response curves (Sakagami, H.; Satoh, K.; Ohata, H.; Takahashi, H.; Yoshida, H.; Iida, M.; Kuribayashi, N.; Sakagami, T.; Momose, K.; Takeda, M. Anticancer Res. 1996, 16, 2635-2644). The general methods used in culturing the cells employed in these cytotoxicity experiments have been described previously (Kawase, M.; Sakagami, H.; Motohashi, N.; Hauer, H.; Chatterjee, S. S.; Spengler, G.; Vigyikanne, A. V.; Molnár, A.; Molnár, J. In Vivo 2005, 19, 705-712; and Takeuchi, R.; Hoshijima, H.; Onuki, N.; Nagasaka, H.; Chowdhury, S. A.; Kawase, M.; Sakagami, H. Anticancer Res. 2005, 25, 4037-4042). In brief, the malignant cells were obtained from Professor Nagumo, Showa University, Japan. The HGF, HPC and HPLF cells were prepared from human periodontal tissue after obtaining informed consent according to the guidelines of Meikai University Ethics Committee, Japan (No. 0206). Since normal cells have a short lifespan, cells at the 3-7 population doubling time were used. With the exception of the HL-60 neoplasm, the cells were cultured in DMEM containing heat-inactivated FBS (10%) at 37° C. in a humidified carbon dioxide atmosphere and subcultured by trypsinization. The HL-60 cells were cultured in a similar fashion except that RPMI 1640 media was employed.
# [1] = test system: murine L-5178 lymphoma cells transfected with the human MDR1 gene; test: MDR reversal, rhodamine 123 fluorescence activity ratio; details: FAR >1 indicates MDR reversal; for FAR value 4 μg/ml: compound 4 μg/ml; for FAR value 40 μg/ml: compound 40 μg/ml
# Description: A solution of the test compound (2 mg/ml, 10 μl) in dimethylsulfoxide was added to aliquots of the cell suspension and incubated at room temperature for 10 minutes. […] The cells were washed twice and resuspended in PBS (pH 7.4) after which the fluorescence was measured using a Beckton Dickinson FACScan instrument. The fluorescence of the cells was measured in treated MDR cells (F1), untreated MDR cells (F2), treated parental cells (F3) […] were obtained from the following equation, viz (F1/F2)/(F3/F4).
# [2] = test system: human squamous cell carcinomas HSC-2; test: Cytotoxicity CC50, MTT assay, HSC-2
# Description: as §1, §2
# [3] = test system: human squamous cell carcinomas HSC-4; test: Cytotoxicity CC50, MTT assay, HSC-4
# Description: as §1, §2
# [4] = test system: human promyelocytic leukemia HL-60; test: Cytotoxicity CC50, trypan blue exclusion, HL-60
# Description: as §1, §2
# [5] = test system: human periodontal ligament fibroblasts (HPLF); test: in vitro
# Description: as §1, §2
# [6] = test system: HSC-2, HSC-4 and HL-60 malignant cells; test: Average CC50 for malignant cells
# Description: as §1, §2
# [7] = test system: human gingival fibroblasts (HGF); test: in vitro
# Description: as §1, §2
# COLO 205 = test: Human tumour cell line panel, colon cancer COLO 205; type: cell-based; details: 48 h; read-out: Colon cancer cells, IC50(μM) COLO 205
# Description: (§3) In addition, both 5-fluorouracil and melphalan were evaluated towards 57 cell lines. […] MG MID is the average of the potencies of the compound to approximately 50 neoplastic cell lines.
# HCT 116 = test: Human tumour cell line panel, colon cancer HCT 116; type: cell-based; details: 48 h; read-out: Colon cancer cells, IC50(μM) HCT 116
# Description: as §3
# SW 620 = test: Human tumour cell line panel, colon cancer SW 620; type: cell-based; details: 48 h; read-out: Colon cancer cells, IC50(μM) SW 620
# Description: as §3
# human tumour cell lines = test: Panel of human tumour cell lines, all cell lines (mean graph midpoint); type: cell-based; details: mean graph midpoint, average of 49 (38-59) human tumour cell lines, 48 h incubation; read-out: All cell lines IC50
# Description: A number of compounds of the invention were further assessed against numerous human malignant cell lines. An average of 49 cell lines from nine different neoplastic diseases, namely leukemia, melanoma, non-small cell lung, colon, central nervous system, ovarian, renal, prostate, and breast cancers were employed.
# as §3
# K 562 = test: Human tumour cell line panel, leukemic K 562; type: cell-based; details: 48 h; read-out: Leukemic cells, IC50(μM) K 562
# Description: as §3
# RPMI 8226 = test: Human tumour cell line panel, leukemic RPMI 8226; type: cell-based; details: 48 h; read-out: Leukemic cells, IC50(μM) RPMI 8226
# Description: as §3
# KM 12 = test: Human tumour cell line panel, colon cancer KM 12; type: cell-based; details: read-out: Colon cancer cells, IC50(μM) KM 12
# Description: as §3
# HCT 15 = test: Human tumour cell line panel, colon cancer HCT 15; type: cell-based; details: 48 h; read-out: Colon cancer cells, IC50(μM) HCT 15
# Description: as §3
# HL 60 = test: Human tumour cell line panel, leukemic HL 60; type: cell-based; details: 48 h; read-out: Leukemic cells, IC50(μM) HL 60
# Description: as §3
# [8] = read-out: CC50(μM) HPC, normal cells, 24 h, MTT
# [9] = read-out: CC50(μM) HSC-2, 24 h, MTT, average of two determinations
# [10] = read-out: CC50(μM) HSC-4, 24 h, MTT, average of two determinations
# [11] = read-out: CC50(μM) HL-60, 24 h, trypan blue exclusion, average of two determinations
# [12] = read-out: CC50(μM) HPLF, normal cells, 24 h, MTT
# [13] = average CC50 for HSC-2, HSC-4 and HL-60 malignant cells
# [14] = read-out: CC50(μM) HGF, normal cells, 24 h, MTT
Compound,CC50 (human pulp cells (HPC)),FAR value 4 μg/ml [1],FAR value 40 μg/ml [1],CC50 [2],CC50 [3],CC50 [4],CC50 [5],CC50(μM) ave [6],CC50 [7],CC50 (human pulp cells (HPC); [8]),"CC50 [2, 9]","CC50 [3, 10]","CC50 [4, 11]","CC50 [5, 12]","CC50(μM) ave [6, 13]","CC50 [7, 14]",other results
"CC[N+](C)(CC)CCOc1ccc(C(=O)N2CC(=Cc3ccc([N+](=O)[O-])cc3)C(=O)C(=Cc3ccc([N+](=O)[O-])cc3)C2)cc1.[I-] [Compound 7c, 1-[4-(2-Diethylaminoethoxy)phenylcarbonyl]-3,5-bis(4-nitrophenylmethylene)-4-piperidone methoiodide]",130 µM,1.03,1.22,67 µM,61 µM,29 µM,13 µM,52 µM,93 µM,–,–,–,–,–,–,–,–
"CC[N+](C)(CC)CCOc1ccc(C(=O)N2CC(=Cc3ccc(Cl)cc3)C(=O)C(=Cc3ccc(Cl)cc3)C2)cc1.[I-] [Compound 7b, 3,5-bis(4-Chlorophenylmethylene)-1-[4-(2-diethylaminoethoxy)phenylcarbonyl]-4-piperidone methoiodide]",> 400 µM,1.21,1.85,> 400 µM,220 µM,64 µM,9.4 µM,–,> 400 µM,–,–,–,–,–,–,–,CC50 [6]: ≥ 228 µM
"Cl.Cl.O.O.O.O=C1C(=Cc2ccc([N+](=O)[O-])cc2)CN(C(=O)c2ccc(OCCN3CCCCC3)cc2)CC1=Cc1ccc([N+](=O)[O-])cc1.O=C1C(=Cc2ccc([N+](=O)[O-])cc2)CN(C(=O)c2ccc(OCCN3CCCCC3)cc2)CC1=Cc1ccc([N+](=O)[O-])cc1 [Compound 5c, 3,5-bis(4-Nitrophenylmethylene)-1-[4-{2-(1-piperidinyl)ethoxy}phenylcarbonyl]-4-piperidone hydrochloride 1.5 hydrate]",3.9 µM,145,51.5,0.86 µM,0.9 µM,0.29 µM,4.9 µM,–,8 µM,–,–,–,–,–,–,–,–
O=C1C(=Cc2ccc(Cl)cc2)CNCC1=Cc1ccc(Cl)cc1 [Compound 1b],130 µM,1.25,0.91,18 µM,20 µM,22 µM,56 µM,20 µM,69 µM,–,–,–,–,–,–,–,–
"1-[4-(2-Diethylaminoethoxy)phenylcarbonyl]-3,5-bis(phenylmethylene)-4-piperidone hydrochloride hemihydrate [Compound 4a]",–,–,–,–,–,–,–,–,–,12 µM,3.1 µM,2 µM,0.61 µM,6 µM,1.9 µM,4.2 µM,IC50 (COLO 205): 2.63 µM; IC50 (HCT 116): < 0.01 µM; IC50 (SW 620): 1.35 µM; IC50 (human tumour cell lines): < 1.38 µM; IC50 (K 562): 0.043 µM; IC50 (RPMI 8226): < 0.01 µM; IC50 (KM 12): 1.74 µM; IC50 (HCT 15): 1.17 µM
"Cc1ccc(C=C2CN(C(=O)c3ccc(OCCN4CCCCC4)cc3)CC(=Cc3ccc(C)cc3)C2=O)cc1.Cc1ccc(C=C2CN(C(=O)c3ccc(OCCN4CCCCC4)cc3)CC(=Cc3ccc(C)cc3)C2=O)cc1.Cl.Cl.O [Compound 5d, 3,5-bis(4-Methylphenylmethylene)-1-[4-{1-piperidinyl)ethoxy}phenylcarbonyl]-4-piperidone hydrochloride hemihydrate]",15 µM,–,–,2.9 µM,4.1 µM,2.3 µM,5.5 µM,–,6 µM,–,–,–,–,–,–,–,IC50 (COLO 205): 6.92 µM; IC50 (HCT 116): 1.58 µM; IC50 (SW 620): 0.339 µM; IC50 (human tumour cell lines): 1.38 µM; IC50 (K 562): 0.589 µM; IC50 (HL 60): 0.933 µM; IC50 (RPMI 8226): 0.123 µM; IC50 (KM 12; 48 h): 0.148 µM; IC50 (HCT 15): 1.07 µM
"1-[4-{2-(1-Piperidinyl)ethoxy}phenylcarbonyl]-3,5-bis(phenylmethylene)-4-piperidone hydrochloride hemihydrate [Compound 5a]",–,–,–,–,–,–,–,–,–,12 µM,3 µM,2.5 µM,1.4 µM,7.4 µM,2.3 µM,4.6 µM,–
Cl.O=C1C(=Cc2ccc(Cl)cc2)CN(C(=O)c2ccc(OCCN3CCOCC3)cc2)CC1=Cc1ccc(Cl)cc1 [Compound 6b],–,76.0,6.88,–,–,–,–,42 µM,–,–,–,–,–,–,–,–,–
Cc1ccc(C=C2CN(C(=O)c3ccc(OCCN4CCCCC4)cc3)CC(=Cc3ccc(C)cc3)C2=O)cc1.Cc1ccc(C=C2CN(C(=O)c3ccc(OCCN4CCCCC4)cc3)CC(=Cc3ccc(C)cc3)C2=O)cc1.Cl.Cl.O [Compound 5d],–,179,146,–,–,–,–,3.1 µM,–,–,–,–,–,–,–,–,–
"[4-(2-Dimethylaminoethoxy)phenylcarbonyl]-3,5-bis(phenylmethylene)-4-piperidone hydrochloride [Compound 3a]",–,45.5,51.6,–,–,1 µM,8.9 µM,–,–,–,3.8 µM,2.1 µM,–,–,2.3 µM,–,–
"1-[4-{2-(4-Morpholinyl)ethoxy}phenylcarbonyl]-3,5-bis(4-nitrophenylmethylene)-4-piperidone hydrochloride hemihydrate [Compound 6c]",–,–,–,–,–,–,–,–,–,8.2 µM,0.76 µM,0.74 µM,0.35 µM,9.3 µM,–,12 µM,–
"1-[4-(2-Dimethylaminoethoxy)phenylcarbonyl]-3,5-bis(4-nitrophenylmethylene)-4-piperidone hydrochloride hemihydrate [Compound 3c]",–,–,–,–,–,–,–,–,–,5.2 µM,0.93 µM,0.71 µM,0.31 µM,5.9 µM,–,7 µM,–
"1-[4-{2-(4-Morpholinyl)ethoxy}phenylcarbonyl]-3,5-bis(phenylmethylene)-4-piperidone hydrochloride hemihydrate [Compound 6a]",–,–,–,–,–,–,–,–,–,95 µM,2.4 µM,2.4 µM,1.2 µM,30 µM,2.0 µM,83 µM,IC50 (COLO 205): 22.9 µM; IC50 (HCT 116): 0.339 µM; IC50 (SW 620): 0.191 µM; IC50 (human tumour cell lines): > 2.63 µM; IC50 (K 562): 0.158 µM; IC50 (HL 60): 0.562 µM; IC50 (RPMI 8226): 0.123 µM; IC50 (KM 12): 0.129 µM; IC50 (HCT 15): 1.45 µM
